Test system: T1, turtle liver aldolase (ALDOA/ALDOB, suggested heterotetramer)
T1 construct: native, purified from liver of normoxic adult females (DEAE+, two Cibacron Blue steps); ~37 kDa subunit
Test: coupled NADH assay (alpha-glycerophosphate dehydrogenase / triose phosphate isomerase), […] nm
Type: biochemical, Trachemys scripta elegans
Conditions: enzyme from normoxic liver; 100 mM KPi pH 7.2, 10 mM EDTA, 25 °C; A/B isoenzyme mixture or heterotetramer

Km	SMILES
~14 mM	O=P(O)(O)OCC1(O)O[C@H](CO)[C@@H](O)[C@@H]1O (some centres unmarked) [F1P, fructose-1-phosphate]
0.00024 ± 3e-05 mM	O=P(O)(O)OC[C@H]1OC(O)(COP(=O)(O)O)[C@@H](O)[C@@H]1O (some centres unmarked) [FBP, fructose-1,6-bisphosphate]

Reference: publication PMC3715522, “Characterization of Fructose-1,6-Bisphosphate Aldolase during Anoxia in the Tolerant Turtle, Trachemys scripta elegans: An Assessment of Enzyme Activity, Expression and Structure” (PLoS ONE, 2013)
